Reference: PMC11987438, “A novel approach utilizing spirocyclic thiopyrimidinone compounds against herpes simplex virus with underlying antiviral mechanisms of action” (Virology Journal, 2025)
Values after ≈ are worked out from the molar mass of the structure shown. “Also recorded” adds a separate entry of the source.

What was measured:
[1] = system: Caspase-3 protein expression; assay: Western blot of Caspase-3 protein expression in HSV-2-infected Vero cells; assay type: cell-based, African green monkey; details: HSV-2-infected Vero cells (MOI = 1) treated at IC50; 1, 3, 6, 12 and 24 h postinfection
Experimental: A 3 ml cell suspension was cultured in six-well cell culture plates supplemented with complete DMEM and then incubated at 37 °C in a 5% CO2 incubator for 24 h. After incubation, the supernatant was discarded, and the cell monolayer was washed with 3 ml of 1x PBS. The cell monolayer was then treated in duplicate according to the IC50. Duplicates for cell and virus control were included. The cell pellets were collected at 1, 3, 6, 12, and 24 h postinfection. The cell pellets were lysed with ice-cold RIPA lysis buffer supplemented with fresh protease inhibitor cocktail, incubated for 30 min on ice, and centrifuged at 15,000 RPM at 4 °C for 20 min, after which the supernatant was transferred to a fresh tube. The total water-soluble protein concentration was quantified via a bicinchoninic acid protein assay kit (Micro BCA™ Protein Assay Kit, REF: 23235; Thermo Scientific). Ten micrograms of protein were loaded in 2x Laemmli buffer and separated via 12% sodium dodecyl sulfate–polyacrylamide gel electrophoresis (SDS‒PAGE) along with a protein ladder (Cat. No. PM008-0500, GeneDirex, Taiwan). The proteins were transferred to a 0.2 μm PVDF membrane (REF.03010040001, Sigma Aldrich, St. Louis, MO, USA) by a Mini-PROTEAN® Tetra Cell and Mini Trans-Blot (Bio-Rad) in transfer buffer (Bio-Rad Tris/Glycine transfer buffer Cat. #1610734) for 45 min at 100 V and 350 mA. β-actin (REF. No. MA5-11869; Invitrogen) was detected as a housekeeping protein against the Caspase-3 mAb (REF. No. 9662 S, Cell Signaling, Danvers, MA, USA) at a 1:1000 dilution via horseradish peroxidase-conjugated anti-mouse IgG (61-6520; Invitrogen) and anti-rabbit IgG (31460; Invitrogen) diluted 1:3000. Bands were detected via SuperSignal™ West Pico PLUS Chemiluminescent Substrate enhanced chemiluminescence (ECL, REF. 34577, Thermo Scientific, USA). Images were captured with a Bio-Rad ChemiDoc gel documentation imaging system and analyzed by Image Lab (Bio-Rad 6.1).

[2] = system: herpes simplex virus type 2 (HSV-2); assay: Inhibition mechanism of action: virus replication; assay type: cell-based, human herpes simplex virus type 2; details: Vero cells infected with HSV-2 MOI = 1 for 1 h, then compound, 72 h, MTT
Experimental: (§1) To gain a better understanding of how each compound’s antiviral activity inhibits specific steps in the viral cycle, we investigated three mechanisms: virus adsorption, virus replication, and viral fusion (virucidal). For the adsorption mechanism, we seeded 100 µl of cell suspension into 96-well cell culture plates under the previously mentioned conditions. After 24 h, the medium was discarded, and the adherent cells were washed with 1x PBS. Then, we added 100 µl of each promising compound at a pretested safe cytotoxic concentration (CC50) to the cells in triplicate. The plates were then incubated at 4 °C for 1 h to allow the compounds to adsorb onto the cell receptors. After incubation, the compound was removed, and the cells were washed again with 1x PBS. Next, we added 100 µl of the virus mixture (MOI = 1) to each well and incubated it for 1 h at 37 °C in a CO2 incubator. The virus was removed, and the cells were washed once more with 1x PBS. Finally, we added 100 µl of maintenance media containing 3% bovine serum albumin (BSA) and incubated the plates for 72 h at 37 °C in a 5% CO2 incubator. For the replication mechanism, we added 100 µl of diluted virus (MOI = 1) to a preseeded 96-well cell culture plate and incubated it for 1 h at 37 °C in a CO2 incubator. After incubation, the virus was removed, and 100 µl of each compound was added in triplicate. The plates were then incubated for 1 h at 37 °C in a CO2 incubator. Next, 100 µl of maintenance medium was added to each well. For the virucidal mechanism, we mixed an equal volume of the safe concentration of the pretested compound with the virus dilution (MOI = 1) and incubated the mixture at room temperature for 1 h. We subsequently prepared twofold serial dilutions of the mixture and inoculated them into the cells, which were then incubated for 1 h at 37 °C in a CO2 incubator. After incubation, the supernatant was removed, the cells were washed, and 100 µl of maintenance media was added. […] Finally, we measured the absorbance at λ = 570 nm via a plate reader (FLUOstar Omega Ω).

[3] = system: herpes simplex virus type 2 (HSV-2); assay: Antiviral activity screening by MTT; assay type: cell-based, human herpes simplex virus type 2; details: for IC50: Human alphaherpesvirus 2, HSV-2 (MOI = 1) in Vero cells, 72 h, MTT; for SI: selectivity index, CC50 (Vero) / IC50 (HSV-2)
Experimental: In accordance with the previous section, the CC50 (50% cytotoxic concentration) of each compound was determined as the starting point for screening its antiviral activity. A volume of 100 µL of cell suspension containing 10^4 cells was added to each well of a 96-well plate. The plates with the cells were then placed in a 5% humidified CO2 incubator at 37 °C for 24 h to allow the cells to adhere and form a monolayer. The cell monolayers were subsequently washed once with 1x phosphate-buffered saline (PBS) and infected with herpes simplex virus type 2 (HSV-2) (MOI = 1) in triplicate for 1 h. After the infection period, 100 µL of each compound’s serial dilution was added to the infected cells. A triplicate of untreated infected cells was included as a positive control (VC), and the mixture was incubated for 72 h at 37 °C in a 5% CO2 incubator. Following the 72-hour incubation, the supernatant medium was removed, and the cell monolayers were washed with 1x PBS. Then, 25 µL of a 0.5 mg/mL solution of MTT (3-(4,5-dimethylthiazol-2-yl)-2,5-diphenyltetrazolium bromide) obtained from Sigma‒Aldrich, Saint Louis, MO, USA, was added to each well and incubated for 2 h at 37 °C. The MTT reagent was subsequently discarded, and 200 µL of acidified isopropanol (1 N HCl in 99.9% isopropanol) was added to dissolve the formazan crystals formed by the viable cells. Finally, the color intensity was measured, and the absorbance was recorded via an ELISA plate reader. The data obtained were used to calculate the IC50 values (50% inhibitory concentration) via nonlinear regression analysis. This was accomplished by plotting the logarithm of the inhibitor concentration against the normalized response. The analysis was performed via GraphPad Prism 5 analysis software.

[4] = Cytotoxicity screening via crystal violet assay; assay type: cell-based; details: African green monkey, Vero cells
Experimental: A volume of 100 µL of cell suspension containing 10^4 cells was placed in each well of a 96-well plate. The plates containing the cells were then placed in a 5% humidified CO2 incubator at 37 °C for 24 h to allow the cells to form a confluent monolayer. By twofold serial dilution, each compound was diluted in 0.01 mL of medium, starting with a concentration of 1000 µg/ml. The diluted compounds were then cultured for 72 h at 37 °C in an environment with 5% CO2. Each concentration was tested 3 times. After the incubation period, the supernatant was discarded, and the cells were washed with 1x phosphate-buffered saline (PBS). The cells were then fixed with 100 µL of 10% formaldehyde and incubated at room temperature for 20 min. The cells were subsequently washed five times with running water. Next, 50 µL of a 0.1% solution of crystal violet dye (LOBA CHEMIE. LTD; C.I.No. 42555) was added to each well and incubated for 15 min. The cell monolayers were washed again and allowed to air dry. Finally, the crystal violet dye was dissolved by adding 200 µL of methanol, and the mixture was incubated for 20 min. The absorbance was measured via an ELISA plate reader (FLUOstar Omega Ω) at a wavelength of 570 nm. Cell viability was calculated as a percentage of the average optical density of the cell controls, which was set to 100%. The 50% cytotoxic concentration (CC50) was calculated via mean dose‒response curves via GraphPad Prism.

[5] = system: herpes simplex virus type 2 (HSV-2); assay: Inhibition mechanism of action: virus adsorption; assay type: cell-based, human herpes simplex virus type 2; details: Vero cells pretreated with compound at safe concentration 1 h at 4 °C, then HSV-2 MOI = 1, 72 h, MTT
Experimental: as §1, with “incubator.” for “incubator. After incubation, the virus was removed, and 100 µl of each compound was added in triplicate. The plates were then incubated for 1 h at 37 °C in a CO2 incubator. Next, 100 µl of maintenance medium was added to each well. For the virucidal mechanism, we mixed an equal volume of the safe concentration of the pretested compound with the virus dilution (MOI = 1) and incubated the mixture at room temperature for 1 h. We subsequently prepared twofold serial dilutions of the mixture and inoculated them into the cells, which were then incubated for 1 h at 37 °C in a CO2 incubator. After incubation, the supernatant was removed, the cells were washed, and 100 µl of maintenance media was added.”

[6] = system: herpes simplex virus type 2 (HSV-2); assay: Inhibition mechanism of action: virucidal; assay type: cell-based, human herpes simplex virus type 2; details: compound mixed with HSV-2 (MOI = 1) 1 h at room temperature before inoculation of Vero cells, 72 h, MTT
Experimental: as §1

SMILES	Caspase-3 protein expression level vs HSV-2 virus control [1]	inhibition of HSV-2 replication [2] [%]	IC50 [3] [µg/mL]	CC50 at 72 h [4] [µg/mL]	inhibition of HSV-2 adsorption [5] [%]	inhibition by virucidal mechanism [6] [%]	SI [3]
CSC1NC(=O)C(C#N)C2(CCCCC2)N1 (stereo not drawn) [Compound 2]	decreased; also recorded: slight changes	26	130 (≈ 544 µM)	566 (≈ 2360 µM)	32	8	–
CC(=O)C(SC1NC(=O)C(C#N)C2(CCCCC2)N1)C(=O)Nc1ccccc1 (stereo not drawn) [Compound 3, 2-((5-cyano-4-oxo-1,3-diazaspiro[5.5]undecan-2-yl)thio)-3-oxo-N-phenylbutanamide]	decreased; also recorded: significant decrease	34	45.4 (≈ 113 µM)	509 (≈ 1270 µM)	–	8	–
N#CC1(/N=N/c2ccccc2)C(=O)NC(=S)NC12CCCCC2 (stereo not drawn) [Compound 5a]	–	–	974 (≈ 2970 µM)	43.9 (≈ 134 µM)	–	–	0.045
N#CC1(/N=N/c2ccc(S(N)(=O)=O)cc2)C(=O)NC(=S)NC12CCCCC2 (stereo not drawn) [Compound 5b]	–	–	536 (≈ 1320 µM)	124 (≈ 306 µM)	–	–	0.231
N#CC1(/N=N/c2ccc(S(=O)(=O)Nc3ncccn3)cc2)C(=O)NC(=S)NC12CCCCC2 (stereo not drawn) [Compound 5c]	decreased; also recorded: slight changes	30	13.9 (≈ 28.8 µM)	53.7 (≈ 111 µM)	42	15	3.84
N#CC1(/N=N/c2ccc(S(=O)(=O)Nc3ccccn3)cc2)C(=O)NC(=S)NC12CCCCC2 (stereo not drawn) [Compound 5d]	–	–	217 (≈ 449 µM)	466 (≈ 963 µM)	–	–	2.14
N#CC1(/N=N/c2ccc(Cl)cc2)C(=O)NC(=S)NC12CCCCC2 (stereo not drawn) [Compound 5e]	–	–	346 (≈ 956 µM)	103 (≈ 284 µM)	–	–	0.296
N#CC1(/N=N/c2ccc(S(=O)(=O)Nc3nccs3)cc2)C(=O)NC(=S)NC12CCCCC2 (stereo not drawn) [Compound 5f]	–	–	399 (≈ 814 µM)	107 (≈ 219 µM)	–	–	0.268
CC(=O)C(SC1NC(=O)C(C#N)(/N=N/c2ccc(Cl)cc2)C2(CCCCC2)N1)C(C)=O (stereo not drawn) [Compound 6a]	–	–	53.8 (≈ 116 µM)	62.4 (≈ 135 µM)	–	–	1.15
CC(=O)C(SC1NC(=O)C(C#N)(/N=N/c2ccc(S(N)(=O)=O)cc2)C2(CCCCC2)N1)C(C)=O (stereo not drawn) [Compound 6b]	–	–	5410 (≈ 10700 µM)	940 (≈ 1860 µM)	–	–	0.173
CC(=O)C(SC1NC(=O)C(C#N)(/N=N/c2ccc(S(=O)(=O)Nc3ccccn3)cc2)C2(CCCCC2)N1)C(C)=O (stereo not drawn) [Compound 6c]	–	–	749 (≈ 1280 µM)	42.1 (≈ 72.1 µM)	–	–	0.056
